# Measured values reported in PubChem BioAssay (NCI).
#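 1) Cells in 96-well plates. 2) Compound, 48 h, 5 concentrations. 3) Linear interpolation between surrounding doses. 4) Unreached endpoint = highest concentration. Definition used: TGI = concentration required for complete inhibition of growth.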
# Legend:
# Assay in all cases: growth of human tumour cells (NCI), 48 h
# COLO 205 colon = test system: COLO 205 colon
# OVCAR-4 ovarian = test system: OVCAR-4 ovarian
# SK-MEL-28 melanoma = test system: SK-MEL-28 melanoma
# U251 CNS = test system: U251 CNS
# MCF7 breast = test system: MCF7 breast
# SNB-19 CNS = test system: SNB-19 CNS
# HOP-62 NSCLC = test system: HOP-62 NSCLC
# HCT-15 colon = test system: HCT-15 colon
# CCRF-CEM leukemia = test system: CCRF-CEM leukemia
# OVCAR-8 ovarian = test system: OVCAR-8 ovarian
# SK-OV-3 ovarian = test system: SK-OV-3 ovarian
# DU-145 prostate = test system: DU-145 prostate
# NCI-H23 lung = test system: NCI-H23 lung
# SW-620 colon = test system: SW-620 colon
# CAKI-1 renal = test system: CAKI-1 renal
# IGROV1 ovarian = test system: IGROV1 ovarian
# NCI-H460 lung = test system: NCI-H460 lung
# LOX IMVI melanoma = test system: LOX IMVI melanoma
# A498 renal = test system: A498 renal
# HOP-92 NSCLC = test system: HOP-92 NSCLC
Compound,TGI (COLO 205 colon) [µM],TGI (OVCAR-4 ovarian) [µM],TGI (SK-MEL-28 melanoma) [µM],TGI (U251 CNS) [µM],TGI (MCF7 breast) [µM],TGI (SNB-19 CNS) [µM],TGI (HOP-62 NSCLC) [µM],TGI (HCT-15 colon) [µM],TGI (CCRF-CEM leukemia) [µM],TGI (OVCAR-8 ovarian) [µM],TGI (SK-OV-3 ovarian) [µM],TGI (DU-145 prostate) [µM],TGI (NCI-H23 lung) [µM],TGI (SW-620 colon) [µM],TGI (CAKI-1 renal) [µM],TGI (IGROV1 ovarian) [µM],TGI (NCI-H460 lung) [µM],TGI (LOX IMVI melanoma) [µM],TGI (A498 renal) [µM],TGI (HOP-92 NSCLC) [µM]
CCC(=O)N1NC(=O)C(CC)(CC)C1=O,> 100,> 100,> 100,> 100,> 100,> 100,> 100,> 100,> 100,> 100,> 100,> 100,> 100,> 100,> 100,> 100,> 100,> 100,–,–
CSC1=NC(C(N)=O)C(N)N1C (configuration not stated),> 100,> 100,> 100,> 100,–,> 100,> 100,> 100,> 100,> 100,> 100,> 100,> 100,> 100,> 100,> 100,> 100,> 100,> 100,> 100
CC(=O)C1=C(C)Cn2c(=O)c3ccccc3c(=O)n2C1,> 100,> 100,> 100,> 100,–,> 100,> 100,> 100,> 100,> 100,> 100,–,> 100,> 100,> 100,> 100,> 100,> 100,> 100,> 100
N#C/C(=C\c1ccc(O)c(O)c1)C(=O)NC1CCC(CC2CCC(NC(=O)/C(C#N)=C/c3ccc(O)c(O)c3)CC2)CC1 (configuration not stated),2.51,40.6,> 100,4.5,–,> 29.9,4.06,32.7,4.36,10.4,> 41.4,–,3.89,25.7,> 29.3,–,1.13,1.22,> 100,6.31
O=C1c2ccccc2-c2c1c(-c1ccc([N+](=O)[O-])cc1)nc1ccc3ccccc3c21,> 100,> 100,> 100,> 100,> 100,> 100,> 100,> 100,> 100,> 100,> 100,> 100,> 100,> 100,> 100,–,> 100,–,> 100,–
CCCCCCCCOC(CO)CO,> 100,> 100,> 100,> 100,–,> 100,> 100,> 100,> 100,> 100,> 100,–,> 100,> 100,> 100,> 100,> 100,> 100,> 100,> 100
